# Molecular target: T1, SALL4 (Homo sapiens, UniProt Q96SW2+Q9UJQ4)
# T1 construct: CRISPR-edited to endogenously express HiBiT tagged SALL4; host or cells: KELLY.2
# Assay: SALL4 HiBiT degradation assay in KELLY.2 cells
# Format: cell-based
# From the text: Nano-Glo® HiBiT Lytic Assay System was purchased from Promega (Catalog No. N3050, Madison, WI, USA). […] The HiBiT polypeptide tag was introduced into the C-terminus of the endogenous SALL4 locus by CRISPR-Cas9 to produce the modified KELLY.2 cell line. The HiBiT polypeptide allows reconstitution of NanoBiT enzyme following cell lysis and addition of the complementing LgBiT polypeptide that activates substrate to produce a luminescent signal that is directly proportional to the amount of HiBiT-tagged SALL4.
# KELLY.2 cells were routinely sub-cultured to maintain cell density between 30-80% confluence, not to exceed 10 passages. Cells were washed with PBS, trypsinized for 5 minutes at 37° C., and resuspended in fresh growth media without phenol red. […] Cell concentration was adjusted with growth media without phenol red to 2×10^5 cells/mL.
# 30 nL DMSO was transferred to all control wells.
# 30 μL of media was dispensed to column 24 as background positive control (P). Plates were spun briefly at 1000 rpm and cells were incubated at 37° C., 5% CO2 for 6 hours. Final concentration of DMSO was 0.1% for all samples.
# Cellular SALL4 protein level was determined based on quantification of HiBiT using Nano-Glo® HiBiT Lytic Assay System (Promega). […] Cells treated in the absence of the test compound (0.1% DMSO vehicle) were the negative control (N) and wells containing only media were the positive control (P).
# Percent response of compound-treated samples (T) were calculated by normalizing to the DMSO treated negative (N) controls on the same microtiter plate after background (i.e., positive control) signal subtraction:
# Curve fit and DC50 (concentration that degrades 50% SALL4) determination was performed by 4 parametric logistic fit analysis using software such as GraphPad Prism software (GraphPad Software, LLC, San Diego, CA, USA). The fit was performed through minimization of the root mean squared error between observed and calculated values of the four-parameter logistic equation using the simplex optimizer of the Apache Commons Math library. […] DC50 values were computed as the concentrations where the fitted curves cross the 50% response level. Averages and standard deviations were computed from replicates of the experiment.
# T1 sequence (Q9UJQ4 whole entry): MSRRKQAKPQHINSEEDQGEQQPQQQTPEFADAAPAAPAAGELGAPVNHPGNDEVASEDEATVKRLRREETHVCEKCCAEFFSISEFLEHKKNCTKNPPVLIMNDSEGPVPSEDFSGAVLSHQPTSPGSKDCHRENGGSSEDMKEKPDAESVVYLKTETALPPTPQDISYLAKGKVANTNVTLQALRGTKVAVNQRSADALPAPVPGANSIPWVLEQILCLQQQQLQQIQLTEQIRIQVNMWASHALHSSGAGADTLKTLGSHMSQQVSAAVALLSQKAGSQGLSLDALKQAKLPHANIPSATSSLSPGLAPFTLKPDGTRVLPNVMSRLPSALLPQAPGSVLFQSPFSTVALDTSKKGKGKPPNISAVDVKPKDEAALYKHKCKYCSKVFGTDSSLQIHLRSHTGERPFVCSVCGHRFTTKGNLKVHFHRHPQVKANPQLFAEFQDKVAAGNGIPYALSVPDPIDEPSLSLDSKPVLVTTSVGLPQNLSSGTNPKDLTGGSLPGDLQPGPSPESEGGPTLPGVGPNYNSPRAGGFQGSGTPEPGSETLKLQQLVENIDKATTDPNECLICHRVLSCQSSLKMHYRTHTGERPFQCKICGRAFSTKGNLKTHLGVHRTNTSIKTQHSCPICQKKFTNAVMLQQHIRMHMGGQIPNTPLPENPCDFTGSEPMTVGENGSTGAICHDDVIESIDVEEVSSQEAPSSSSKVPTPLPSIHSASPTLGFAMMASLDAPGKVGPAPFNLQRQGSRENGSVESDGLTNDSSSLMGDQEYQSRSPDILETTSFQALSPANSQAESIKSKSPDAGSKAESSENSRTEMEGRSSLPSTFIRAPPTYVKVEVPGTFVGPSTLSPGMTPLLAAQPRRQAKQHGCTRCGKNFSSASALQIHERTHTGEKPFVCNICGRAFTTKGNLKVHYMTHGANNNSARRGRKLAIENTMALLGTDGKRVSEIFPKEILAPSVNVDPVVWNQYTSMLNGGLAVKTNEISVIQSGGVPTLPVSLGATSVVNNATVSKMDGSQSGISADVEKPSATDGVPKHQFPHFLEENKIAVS
# T1 sequence (Q96SW2 whole entry): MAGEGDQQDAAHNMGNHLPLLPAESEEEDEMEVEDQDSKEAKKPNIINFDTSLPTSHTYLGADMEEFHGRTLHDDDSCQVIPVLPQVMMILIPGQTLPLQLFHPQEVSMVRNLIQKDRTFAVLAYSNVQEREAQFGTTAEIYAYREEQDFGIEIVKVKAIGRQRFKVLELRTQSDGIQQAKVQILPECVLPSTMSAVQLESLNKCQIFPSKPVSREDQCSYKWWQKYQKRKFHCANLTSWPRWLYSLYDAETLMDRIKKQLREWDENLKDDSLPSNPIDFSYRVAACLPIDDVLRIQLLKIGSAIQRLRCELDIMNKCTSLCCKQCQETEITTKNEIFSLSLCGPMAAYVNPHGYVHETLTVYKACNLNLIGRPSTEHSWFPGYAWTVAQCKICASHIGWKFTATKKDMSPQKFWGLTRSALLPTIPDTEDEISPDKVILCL
# T1 sequence (Q16531 2-1140 partner limits assumed): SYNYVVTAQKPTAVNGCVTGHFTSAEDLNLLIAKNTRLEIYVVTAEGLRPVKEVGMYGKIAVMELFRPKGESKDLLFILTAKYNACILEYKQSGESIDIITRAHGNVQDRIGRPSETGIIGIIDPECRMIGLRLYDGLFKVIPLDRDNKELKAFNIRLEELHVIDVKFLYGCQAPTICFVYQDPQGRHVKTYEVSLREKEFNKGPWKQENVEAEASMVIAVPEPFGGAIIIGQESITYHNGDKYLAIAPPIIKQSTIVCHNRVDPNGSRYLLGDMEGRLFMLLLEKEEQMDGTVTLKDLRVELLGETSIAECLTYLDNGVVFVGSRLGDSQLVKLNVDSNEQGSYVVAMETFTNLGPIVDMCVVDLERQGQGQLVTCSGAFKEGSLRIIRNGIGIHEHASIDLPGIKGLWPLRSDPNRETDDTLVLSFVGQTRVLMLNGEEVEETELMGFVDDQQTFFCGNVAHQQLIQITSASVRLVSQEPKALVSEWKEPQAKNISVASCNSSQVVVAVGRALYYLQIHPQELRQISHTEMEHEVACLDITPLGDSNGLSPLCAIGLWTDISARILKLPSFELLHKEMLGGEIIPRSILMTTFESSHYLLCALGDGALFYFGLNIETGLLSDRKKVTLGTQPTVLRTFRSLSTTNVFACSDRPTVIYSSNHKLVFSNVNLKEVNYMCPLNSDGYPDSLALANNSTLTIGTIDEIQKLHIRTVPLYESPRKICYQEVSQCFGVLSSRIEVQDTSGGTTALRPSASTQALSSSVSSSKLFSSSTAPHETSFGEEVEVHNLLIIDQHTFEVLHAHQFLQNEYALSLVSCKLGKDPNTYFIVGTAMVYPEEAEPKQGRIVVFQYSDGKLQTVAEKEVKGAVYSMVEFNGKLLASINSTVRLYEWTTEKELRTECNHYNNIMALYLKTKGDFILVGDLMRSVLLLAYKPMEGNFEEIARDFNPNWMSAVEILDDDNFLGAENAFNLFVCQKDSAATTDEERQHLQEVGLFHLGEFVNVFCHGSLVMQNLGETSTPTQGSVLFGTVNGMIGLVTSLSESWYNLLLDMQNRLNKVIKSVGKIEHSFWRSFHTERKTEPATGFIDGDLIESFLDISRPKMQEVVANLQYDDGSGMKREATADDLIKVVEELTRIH
structure (smiles),measurement,setting,value
"COc1cc(-c2cn(C)c(=O)c(C)c2C)cc(OC)c1CN1CC[C@H](N2CCN(c3ccc(N[C@H]4CCC(=O)NC4=O)cc3F)CC2)C(F)(F)C1 [Compound 1, (S)-3-((4-(4-((S)-1-(2,6-dimethoxy-4-(1,4,5-trimethyl-6-oxo-1,6-dihydropyridin-3-yl)benzyl)-3,3-difluoropiperidin-4-yl)piperazin-1-yl)-3-fluorophenyl)amino)-piperidine-2,6-dione]","% SALL4 Remaining Relative to Vehicle Control at 6 hr, Mean",0.101 nM,103.8%
same,"% SALL4 Remaining Relative to Vehicle Control at 6 hr, Mean",0.318 nM,104.1%
same,"% SALL4 Remaining Relative to Vehicle Control at 6 hr, Mean",1.01 nM,104.1%
same,"% SALL4 Remaining Relative to Vehicle Control at 6 hr, Mean",3.17 nM,103.7%
same,"% SALL4 Remaining Relative to Vehicle Control at 6 hr, Mean",10.0 nM,106.5%
same,"% SALL4 Remaining Relative to Vehicle Control at 6 hr, Mean",31.7 nM,106.1%
same,"% SALL4 Remaining Relative to Vehicle Control at 6 hr, Mean",100 nM,104.2%
same,"% SALL4 Remaining Relative to Vehicle Control at 6 hr, Mean",317 nM,105.0%
same,"% SALL4 Remaining Relative to Vehicle Control at 6 hr, Mean",1000 nM,104.0%
same,"% SALL4 Remaining Relative to Vehicle Control at 6 hr, Mean",3161 nM,104.4%
same,"% SALL4 Remaining Relative to Vehicle Control at 6 hr, Mean",9990 nM,96.6%
same,Emax,"SALL4-HiBiT, KELLY.2 cells, 6 hours, read-out: Mean Emax (%) ± SD",98.9 ± 2.1%
same,effect on degradation of SALL4,"concentrations up to 10 μM, 6 hours",no significant effect
